Experimental data reported in patent US11648254B2 (Kumquat Biosciences Inc., priority 2021, dated 2023).
Read-outs that look alike come from different tables or passages of the source.

What was measured:
[1] = system: MIA PaCa-2 cells (K-Ras G12C); experiment: Ras-SOS cellular growth inhibition assay (CellTiter-Glo, 3D); type: cell-based; settings: Homo sapiens
Method in brief: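 MIA PaCa-2 cells grown in ultra-low-attachment plates (3D) in DMEM/Ham's F12 with 10% FCS and 2.5% horse serum, treated the day after seeding with a 9-point 3-fold compound series for about 5 days. Viability by CellTiter-Glo luminescence; IC50 from four-parameter fit.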

[2] = system: NCI-H1975 cells (EGFR T790M L858R); experiment: EGFR-SOS cellular inhibition assay (CellTiter-Glo, 3D); type: cell-based; settings: Homo sapiens
SOS1 = SOS1 (Homo sapiens (Human), UniProt Q07889); experiment: Ras-SOS interaction assay (HTRF); type: biochemical
[3] = MIA PaCa-2, 120 h, MIA PaCa-2, 3D proliferation, about 5 days, read-out: Bio-Cell-Prolif-3D (MiaPaca2 IC50)
[4] = 120 h, NCI-H1975, 3D proliferation, about 5 days, read-out: Bio-Cell-Prolif-3D (H1975 IC50)
[5] = NCI-H1975, EGFR T790M L858R, read-out: IC50 in inhibiting growth of NCI-H1975 cell line
[6] = K-RasG13D utilized, read-out: IC50 inhibition of SOS
[7] = K-RasG13D, read-out: IC50 value against SOS1
[8] = MIA PaCa-2, MIA PaCa-2, read-out: IC50 in inhibiting MIA PaCa-2 cell growth

SOS1, sequence (Q07889 564-1049): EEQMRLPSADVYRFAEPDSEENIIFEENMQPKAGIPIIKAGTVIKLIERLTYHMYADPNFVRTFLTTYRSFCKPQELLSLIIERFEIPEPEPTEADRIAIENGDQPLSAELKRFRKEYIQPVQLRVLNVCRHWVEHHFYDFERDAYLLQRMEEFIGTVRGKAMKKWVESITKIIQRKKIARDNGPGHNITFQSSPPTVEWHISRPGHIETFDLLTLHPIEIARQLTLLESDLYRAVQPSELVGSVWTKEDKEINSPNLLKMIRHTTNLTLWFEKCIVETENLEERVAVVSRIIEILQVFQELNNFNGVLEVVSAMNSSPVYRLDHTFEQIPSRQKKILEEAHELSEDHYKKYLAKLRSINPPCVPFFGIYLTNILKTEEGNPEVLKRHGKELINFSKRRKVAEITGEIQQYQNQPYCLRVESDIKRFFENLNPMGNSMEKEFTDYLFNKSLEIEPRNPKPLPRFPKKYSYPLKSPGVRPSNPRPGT

IC50 [1, 3]	IC50 [2, 4]	IC50 [2, 5]	IC50 (SOS1; [6])	IC50 (SOS1; [7])	IC50 [1, 8]	Compound
1000 to 10000 nM	≤ 1000 nM	< 500 nM	< 100 nM	–	–	Cc1nc(N[C@H](C)c2cccc(C(F)F)c2F)c2cc(C3(C#N)CC3)c(O[C@@H]3CCN(C)C3)nc2n1 [Compound 226, 1-(4-(((R)-1-(3-(difluoromethyl)-2-fluorophenyl)ethyl)amino)-2-methyl-7-(((R)-1-methylpyrrolidin-3-yl)oxy)pyrido[2,3-d]pyrimidin-6-yl)cyclopropane-1-carbonitrile]
≤ 1000 nM	≤ 1000 nM	< 500 nM	< 100 nM	< 50 nM	< 500 nM	COc1nc2ncnc(N[C@H](C)c3cccc(C(C)(F)F)c3F)c2cc1N1CCS(=O)(=O)CC1 [Compound 292, (R)-4-(4-((1-(3-(1,1-difluoroethyl)-2-fluorophenyl)ethyl)amino)-7-methoxypyrido[2,3-d]pyrimidin-6-yl)thiomorpholine 1,1-dioxide]
≤ 1000 nM	≤ 1000 nM	< 500 nM	< 100 nM	< 50 nM	< 500 nM	COc1nc2ncnc(N[C@H](C)c3cccc(C(F)(F)CO)c3)c2cc1N1CCN(C(C)C)CC1 [Compound 205, (R)-2,2-difluoro-2-(3-(1-((6-(4-isopropylpiperazin-1-yl)-7-methoxypyrido[2,3-d]pyrimidin-4-yl)amino)ethyl)phenyl)ethan-1-ol]
≤ 1000 nM	≤ 1000 nM	–	< 100 nM	< 50 nM	< 500 nM	Cc1nc(N[C@H](C)c2cccc(C(F)F)c2F)c2cc(C3(C#N)CC3)c(N3CCOCC3)nc2n1 [Compound 396, (R)-1-(4-((1-(3-(difluoromethyl)-2-fluorophenyl)ethyl)amino)-2-methyl-7-morpholinopyrido[2,3-d]pyrimidin-6-yl)cyclopropane-1-carbonitrile]
≤ 1000 nM	≤ 1000 nM	–	< 100 nM	–	–	COc1nc2nc(C)nc(N[C@H](C)c3cccc(C(F)(F)F)c3C)c2cc1C1(C#N)CC1 [Compound 213, (R)-1-(7-methoxy-2-methyl-4-((1-(2-methyl-3-(trifluoromethyl)phenyl)ethyl)amino)pyrido[2,3-d]pyrimidin-6-yl)cyclopropane-1-carbonitrile]
1000 to 10000 nM	1000 to 10000 nM	–	< 100 nM	< 50 nM	–	Cc1nc(N[C@H](C)c2cccc(C(F)(F)C(C)(C)O)c2F)c2cc(C3(C#N)CC3)c(OC3COC3)nc2n1 [Compound 245, (R)-1-(4-((1-(3-(1,1-difluoro-2-hydroxy-2-methylpropyl)-2-fluorophenyl)ethyl)amino)-2-methyl-7-(oxetan-3-yloxy)pyrido[2,3-d]pyrimidin-6-yl)cyclopropane-1-carbonitrile]
–	–	< 500 nM	< 100 nM	< 50 nM	< 500 nM	Cc1nc(N[C@H](C)c2cccc(C(F)F)c2F)c2cc(C3CCN(C)CC3)c(OCCN(C)C)nc2n1 [Compound 334, (R)-N-(1-(3-(difluoromethyl)-2-fluorophenyl)ethyl)-7-(2-(dimethylamino)ethoxy)-2-methyl-6-(1-methylpiperidin-4-yl)pyrido[2,3-d]pyrimidin-4-amine]
≤ 1000 nM	≤ 1000 nM	< 500 nM	< 100 nM	< 50 nM	< 500 nM	Cc1nc(N[C@H](C)c2cccc(C(F)(F)C3CCN(C(C)C)CC3)c2F)c2cc(N3CCN(C(C)C)CC3)c(Cl)nc2n1 [Compound 223, (R)-7-chloro-N-(1-(3-(difluoro(1-isopropylpiperidin-4-yl)methyl)-2-fluorophenyl)ethyl)-6-(4-isopropylpiperazin-1-yl)-2-methylpyrido[2,3-d]pyrimidin-4-amine]
1000 to 10000 nM	≤ 1000 nM	< 500 nM	< 100 nM	–	–	COc1nc2ncnc(N[C@H](C)c3cccc(C(F)F)c3F)c2cc1C1CCS(=O)(=O)CC1 [Compound 315, (R)-4-(4-((1-(3-(difluoromethyl)-2-fluorophenyl)ethyl)amino)-7-methoxypyrido[2,3-d]pyrimidin-6-yl)tetrahydro-2H-thiopyran 1,1-dioxide]
≤ 1000 nM	≤ 1000 nM	< 500 nM	< 100 nM	–	< 500 nM	CCN1CCN(c2cc3c(N[C@H](C)c4cccc(C(F)F)c4F)ncnc3nc2OC)CC1 [Compound 372, (R)-N-(1-(3-(difluoromethyl)-2-fluorophenyl)ethyl)-6-(4-ethylpiperazin-1-yl)-7-methoxypyrido[2,3-d]pyrimidin-4-amine]

More lines, now with the values behind:

Compound	IC50 [1, 3]	IC50 [2, 4]	IC50 [2, 5]	IC50 (SOS1; [6])	IC50 (SOS1; [7])	IC50 [1, 8]
COc1nc2nc(C)nc(N[C@H](C)c3cccc(C(F)(F)F)c3F)c2cc1C1CCN(C(C)=O)CC1 [Compound 165, (R)-1-(4-(4-((1-(2-fluoro-3-(trifluoromethyl)phenyl)ethyl)amino)-7-methoxy-2-methylpyrido[2,3-d]pyrimidin-6-yl)piperidin-1-yl)ethan-1-one]	≤ 1000 nM	≤ 1000 nM	< 500 nM	< 100 nM	< 50 nM	–
COc1nc2nc(C)nc(N[C@H](C)c3cccc(C(F)F)c3F)c2cc1S(=O)(=O)N1CCNCC1 [Compound 114, (R)-N-(1-(3-(difluoromethyl)-2-fluorophenyl)ethyl)-7-methoxy-2-methyl-6-(piperazin-1-ylsulfonyl)pyrido[2,3-d]pyrimidin-4-amine]	≤ 1000 nM	≤ 1000 nM	–	< 100 nM	< 50 nM	–
Cc1nc(N[C@H](C)c2cccc(C(F)(F)F)c2C)c2cc(C3(C#N)CC3)c(N3CCN(C(C)C)CC3)nc2n1 [Compound 178, (R)-1-(7-(4-isopropylpiperazin-1-yl)-2-methyl-4-((1-(2-methyl-3-(trifluoromethyl)phenyl)ethyl)amino)pyrido[2,3-d]pyrimidin-6-yl)cyclopropane-1-carbonitrile]	≤ 1000 nM	1000 to 10000 nM	–	< 100 nM	< 50 nM	< 500 nM
Cc1nc(N[C@H](C)c2cccc(C(F)F)c2F)c2cc(N3CCS(=O)(=O)CC3)c(OC3COC3)nc2n1 [Compound 183, (R)-4-(4-((1-(3-(difluoromethyl)-2-fluorophenyl)ethyl)amino)-2-methyl-7-(oxetan-3-yloxy)pyrido[2,3-d]pyrimidin-6-yl)thiomorpholine 1,1-dioxide]	1000 to 10000 nM	≤ 1000 nM	< 500 nM	< 100 nM	< 50 nM	–
COc1nc2nc(C)nc(N[C@H](C)c3cccc(C(F)F)c3F)c2cc1C1CCS(=N)(=O)CC1 (stereo partly drawn) [Compound 153, 4-(4-(((R)-1-(3-(difluoromethyl)-2-fluorophenyl)ethyl)amino)-7-methoxy-2-methylpyrido[2,3-d]pyrimidin-6-yl)-1-iminohexahydro-1λ6-thiopyran 1-oxide]	≤ 1000 nM	≤ 1000 nM	< 500 nM	< 100 nM	< 50 nM	< 500 nM
COc1nc2ncnc(N[C@H](C)c3cccc(C(F)F)c3F)c2cc1C1(C(F)F)CC1 [Compound 185, (R)-N-(1-(3-(difluoromethyl)-2-fluorophenyl)ethyl)-6-(1-(difluoromethyl)cyclopropyl)-7-methoxypyrido[2,3-d]pyrimidin-4-amine]	1000 to 10000 nM	1000 to 10000 nM	–	100 to 1000 nM	–	–
COc1nc2nc(C)nc(N[C@H](C)c3cccc(C(F)F)c3F)c2cc1C1CCN(C)CC1 [Compound 113, (R)-N-(1-(3-(difluoromethyl)-2-fluorophenyl)ethyl)-7-methoxy-2-methyl-6-(1-methylpiperidin-4-yl)pyrido[2,3-d]pyrimidin-4-amine]	≤ 1000 nM	≤ 1000 nM	< 500 nM	< 100 nM	< 50 nM	< 500 nM
COc1nc2nc(C)nc(N[C@H](C)c3cccc(C(F)(F)C4CCN(C(C)C)CC4)c3F)c2cc1C1CCN(C(C)C)CC1 [Compound 161, (R)-N-(1-(3-(difluoro(1-isopropylpiperidin-4-yl)methyl)-2-fluorophenyl)ethyl)-6-(1-isopropylpiperidin-4-yl)-7-methoxy-2-methylpyrido[2,3-d]pyrimidin-4-amine]	≤ 1000 nM	≤ 1000 nM	< 500 nM	< 100 nM	< 50 nM	< 500 nM
CC(C)N1CCC(c2cc3c(N[C@H](C)c4cccc(C(F)F)c4F)ncnc3nc2OC2CN(C)C2)CC1 [Compound 187, (R)-N-(1-(3-(difluoromethyl)-2-fluorophenyl)ethyl)-6-(1-isopropylpiperidin-4-yl)-7-((1-methylazetidin-3-yl)oxy)pyrido[2,3-d]pyrimidin-4-amine]	1000 to 10000 nM	1000 to 10000 nM	–	< 100 nM	< 50 nM	–
COCCOc1nc2nc(C)nc(N[C@H](C)c3cccc(C(F)F)c3F)c2cc1C1(C#N)CC1 [Compound 151, (R)-1-(4-((1-(3-(difluoromethyl)-2-fluorophenyl)ethyl)amino)-7-(2-methoxyethoxy)-2-methylpyrido[2,3-d]pyrimidin-6-yl)cyclopropane-1-carbonitrile]	≤ 1000 nM	≤ 1000 nM	< 500 nM	–	< 50 nM	–
